Columns and labels:
Tg2576 AD Disease Mice = experiment: Tg2576 study: elevated plus maze; format: in vivo; settings: for Elevated Plus Maze time spent in Closed arms / Elevated Plus Maze time spent in Open arms: G3 Tg2576 mice
Procedure: (§1) Mice were weighed and randomized into groups. All the test formulations were freshly administered to respective animals of each group as per body weight. Basal behavior of the animals was recorded and analyzed in open field, Y-Maze, and EPM. Post basal behavior, animals were treated with compound I-16 for the duration of 3 months (i.e., from 6 months until 9 months). During the treatment duration, animals were subjected to different behavioral tests such as OFT, Y-maze, and EPM at 7, 8 and 9 months. At the end of experiments (i.e., at 9 months) animals were subjected to Morris water maze test.
Animals were subjected to elevated plus maze to evaluate anxiety-like behavior. Animals were placed in the centre of the arena with two open and two closed arms facing towards closed arms and allowed to explore the arena for a duration of 5 minutes. Animal behavior was video recorded using overhead video recording camera. Total time spent in the closed and open arms were quantified using automated animal tracking software Ethovision XT.

[1] = Tg2576 study: body weight; format: in vivo; settings: G3 Tg2576 mice, 50 mg/kg (80 mg/kg from day 36) p.o., in g (unit assumed)
Procedure: Compound I-16 (free base; purity of 98.77%) was tested in a vehicle of PEG 400 (30%), Tween 80 (2%), and water (68%) at a concentration of […]. Dose formulations were prepared every day prior to dose administration. Oral dosages of 50 mg/kg were used unless otherwise indicated. 80 mg/kg doses were similarly prepared at a concentration of 8 mg/mL Male mice aged 6 months were used. 30 total animals were used with 10 animals in each group and 3 groups total. Groups were separated according to the following parameters.
as §1

HDAC8 = target: T1, HDAC8 (Homo sapiens, UniProt Q9BY41); experiment: HDAC selectivity panel: HDAC8; format: biochemical
T1 sequence (Q9BY41 1-377): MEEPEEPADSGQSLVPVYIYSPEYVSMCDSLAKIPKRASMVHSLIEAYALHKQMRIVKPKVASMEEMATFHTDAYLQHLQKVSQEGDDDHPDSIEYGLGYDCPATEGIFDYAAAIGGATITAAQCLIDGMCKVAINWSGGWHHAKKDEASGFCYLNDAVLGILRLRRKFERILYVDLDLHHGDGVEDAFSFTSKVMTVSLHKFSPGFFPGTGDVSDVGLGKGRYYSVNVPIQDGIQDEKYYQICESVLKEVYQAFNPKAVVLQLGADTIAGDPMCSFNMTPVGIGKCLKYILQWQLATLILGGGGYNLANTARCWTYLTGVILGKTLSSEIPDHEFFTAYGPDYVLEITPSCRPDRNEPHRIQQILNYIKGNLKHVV

HDAC5 = HDAC5 (Homo sapiens, UniProt Q9UQL6); experiment: HDAC selectivity panel: HDAC5; format: biochemical
Chain of HDAC5 (Q9UQL6 whole entry, species assumed): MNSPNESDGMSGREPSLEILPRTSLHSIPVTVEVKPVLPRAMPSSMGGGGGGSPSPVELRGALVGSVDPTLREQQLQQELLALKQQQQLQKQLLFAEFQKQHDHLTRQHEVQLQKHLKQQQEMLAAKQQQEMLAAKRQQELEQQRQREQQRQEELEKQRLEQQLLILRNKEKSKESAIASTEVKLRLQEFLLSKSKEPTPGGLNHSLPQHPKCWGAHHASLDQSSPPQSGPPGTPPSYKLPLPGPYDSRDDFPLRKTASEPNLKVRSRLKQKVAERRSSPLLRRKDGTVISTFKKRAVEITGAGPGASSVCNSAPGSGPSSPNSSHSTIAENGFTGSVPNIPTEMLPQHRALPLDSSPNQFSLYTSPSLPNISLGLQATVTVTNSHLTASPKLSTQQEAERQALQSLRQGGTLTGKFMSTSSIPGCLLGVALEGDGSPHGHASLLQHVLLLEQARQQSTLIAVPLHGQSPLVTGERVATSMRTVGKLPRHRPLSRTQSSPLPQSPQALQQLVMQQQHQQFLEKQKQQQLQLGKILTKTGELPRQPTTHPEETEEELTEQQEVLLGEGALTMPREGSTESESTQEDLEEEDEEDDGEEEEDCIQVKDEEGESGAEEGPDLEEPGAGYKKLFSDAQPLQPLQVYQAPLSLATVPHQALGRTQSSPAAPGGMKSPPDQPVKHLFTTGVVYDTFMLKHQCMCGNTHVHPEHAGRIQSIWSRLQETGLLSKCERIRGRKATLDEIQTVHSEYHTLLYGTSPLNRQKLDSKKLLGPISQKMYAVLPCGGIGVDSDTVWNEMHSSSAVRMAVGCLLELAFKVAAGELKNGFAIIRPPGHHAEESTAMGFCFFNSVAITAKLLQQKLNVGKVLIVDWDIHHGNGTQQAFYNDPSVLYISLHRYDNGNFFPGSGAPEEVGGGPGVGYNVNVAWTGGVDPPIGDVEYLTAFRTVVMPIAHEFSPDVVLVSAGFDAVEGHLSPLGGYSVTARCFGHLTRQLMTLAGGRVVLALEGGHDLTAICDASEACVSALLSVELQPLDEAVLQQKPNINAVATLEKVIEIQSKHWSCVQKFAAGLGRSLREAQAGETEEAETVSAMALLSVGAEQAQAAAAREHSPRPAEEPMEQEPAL

[2] = ALS mouse model: clinical signs & mortality; format: in vivo; settings: G4 30 mg/kg (50 mg/kg from day 34) p.o. QD; SOD1-G93A mice
Procedure: Male mice and age-matched control mice were procured. All animals were quarantine for 7 days and acclimatized for one day prior to experiment initiation. During this period, the animals were observed daily for clinical signs.
Mice were weighed and randomized into different groups and age matched control groups were kept as such. Test compound I-8 was freshly formulated and administered to the respective animals of each group as per body weight. Animals in G1 and G2 were administered with vehicle. G3 and G4 group animals were dosed with compound I-8 at the dose of 15 mg/kg and 30 mg/kg respectively, per orally; Q.D. G4 animals were administered 30 mg/kg dose until day 34 and 50 mg/kg from day 35 onwards.
Cage-side observations were made to detect any changes and general activity of the animals. After dose administration, all the animals were observed carefully for treatment related clinical signs, including morbidity and mortality.

HDAC4 = HDAC4 (Homo sapiens, UniProt P56524); experiment: HDAC selectivity panel: HDAC4; format: biochemical
Chain of HDAC4 (P56524 whole entry, species assumed): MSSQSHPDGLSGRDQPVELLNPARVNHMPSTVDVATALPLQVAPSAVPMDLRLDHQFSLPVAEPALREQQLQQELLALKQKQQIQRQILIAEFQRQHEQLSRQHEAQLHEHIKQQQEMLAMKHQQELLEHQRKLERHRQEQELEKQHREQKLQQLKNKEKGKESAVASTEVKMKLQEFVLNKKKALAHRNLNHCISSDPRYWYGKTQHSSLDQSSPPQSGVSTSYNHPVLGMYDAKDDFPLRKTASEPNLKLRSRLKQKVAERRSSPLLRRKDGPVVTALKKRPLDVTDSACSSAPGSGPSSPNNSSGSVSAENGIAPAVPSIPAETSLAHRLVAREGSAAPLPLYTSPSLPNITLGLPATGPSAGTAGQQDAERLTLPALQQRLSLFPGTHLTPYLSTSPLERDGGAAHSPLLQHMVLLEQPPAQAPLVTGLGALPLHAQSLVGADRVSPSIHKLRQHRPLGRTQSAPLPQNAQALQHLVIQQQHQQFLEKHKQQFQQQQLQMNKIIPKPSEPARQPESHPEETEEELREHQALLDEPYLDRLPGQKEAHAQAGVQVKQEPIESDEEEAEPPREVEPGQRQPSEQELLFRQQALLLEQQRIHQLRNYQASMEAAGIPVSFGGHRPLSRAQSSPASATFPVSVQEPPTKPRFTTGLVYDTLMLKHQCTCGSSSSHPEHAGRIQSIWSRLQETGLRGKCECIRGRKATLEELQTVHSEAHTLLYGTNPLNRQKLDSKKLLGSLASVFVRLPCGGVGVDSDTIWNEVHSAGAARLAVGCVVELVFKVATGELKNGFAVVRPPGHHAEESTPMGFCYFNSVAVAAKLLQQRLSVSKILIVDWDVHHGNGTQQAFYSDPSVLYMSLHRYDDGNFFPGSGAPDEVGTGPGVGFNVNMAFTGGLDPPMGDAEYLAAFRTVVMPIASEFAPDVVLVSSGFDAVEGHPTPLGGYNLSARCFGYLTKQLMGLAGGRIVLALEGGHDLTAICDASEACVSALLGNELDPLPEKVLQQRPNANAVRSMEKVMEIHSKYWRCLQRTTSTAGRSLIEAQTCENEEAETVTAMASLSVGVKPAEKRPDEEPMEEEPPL

[3] = 50 mg/kg then 80 mg/kg from day 36 p.o., 8th months
[4] = 50 mg/kg then 80 mg/kg from day 36 p.o., 9th months
[5] = 6th months (Basal, before treatment)

**Q.** What does the source list for `C[C@@H]1CN(Cc2ccc(Nc3nccc(-c4ccc(C(=O)NO)cc4)n3)cc2F)CCO1` [Compound I-16, (R)-4-(2-((3-fluoro-4-((2-methylmorpholino)methyl)phenyl)amino)pyrimidin-4-yl)-N-hydroxybenzamide]?
**A.** Elevated Plus Maze: time spent in open and closed arms compared to G2 (Tg2576 + vehicle) (Tg2576 AD Disease Mice; G3 Tg2576 AD disease mice, 50 mg/kg): did not show any significant difference; Elevated Plus Maze time spent in Closed arms (Tg2576 AD Disease Mice; 50 mg/kg p.o., 7th months): 165.48 ± 28.89; Elevated Plus Maze time spent in Open arms (Tg2576 AD Disease Mice; 50 mg/kg p.o., 7th months): 73.82 ± 27.58; Elevated Plus Maze time spent in Closed arms (Tg2576 AD Disease Mice; [3]): 245.27 ± 12.41; Elevated Plus Maze time spent in Open arms (Tg2576 AD Disease Mice; [3]): 54.73 ± 12.41; Elevated Plus Maze time spent in Closed arms (Tg2576 AD Disease Mice; [4]): 241.46 ± 11.16; Elevated Plus Maze time spent in Open arms (Tg2576 AD Disease Mice; [4]): 58.55 ± 11.16; Elevated Plus Maze time spent in Closed arms (Tg2576 AD Disease Mice; [5]): 110.86 ± 16.69; Elevated Plus Maze time spent in Open arms (Tg2576 AD Disease Mice; [5]): 82.94 ± 14.23; Body weight ([1]; Day 0): 28.08 ± 0.84; Body weight ([1]; Day 4): 27.31 ± 0.52; Body weight ([1]; Day 7): 26.85 ± 0.66; Body weight ([1]; Day 14): 28.27 ± 0.87; Body weight ([1]; Day 21): 27.65 ± 0.86; Body weight ([1]; Day 28): 28.23 ± 1.02; Body weight ([1]; Day 35): 28.88 ± 0.55; Body weight ([1]; Day 42): 28.35 ± 0.63; Body weight ([1]; Day 49): 28.76 ± 0.76; Body weight ([1]; Day 56): 27.77 ± 0.67; Body weight ([1]; Day 63): 28.72 ± 1.03; Body weight ([1]; Day 70): 29.54 ± 0.72; Body weight ([1]; Day 77): 29.16 ± 0.71; Body weight ([1]; Day 84): 29.14 ± 0.86; Body weight ([1]; Day 91): 29.41 ± 0.78

**Q.** With `CC1CN(Cc2ccc(Nc3nccc(-c4ccc(C(=O)NO)cc4)n3)cc2F)CCO1` (racemic) [Compound I-8, 4-(2-((3-fluoro-4-((2-methylmorpholino)methyl)phenyl)amino)pyrimidin-4-yl)-N-hydroxybenzamide] as the compound, how does the IC50 (HDAC8) read?
**A.** Its IC50 is 0.102 µM.

**Q.** What about the IC50 (HDAC5) of the same compound?
**A.** The IC50 was 7.77 µM.

**Q.** What about the mortality [2] of the same compound?
**A.** Its mortality is “two mortalities”.

**Q.** What about the IC50 (HDAC4) of the same compound?
**A.** Its IC50 is 11.1 µM.

Source: US20260109690A1, “HDAC6 INHIBITORS AND METHOD OF THEIR USE” (Baerenkraft Therapeutics, LLC., priority 2024, published 2026)
